Among the test systems are COLO 205 colon; SK-MEL-5 melanoma; MOLT-4 leukemia; MALME-3M melanoma; A549 NSCLC; OVCAR-5 ovarian; SK-OV-3 ovarian; 786-0 renal; PC-3 prostate; ACHN renal; BT-549 breast; MDA-MB-231 breast; KM12 colon; SNB-75 CNS.
Experiment in all cases: NCI tumour cell line growth inhibition, 48 h

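Assay format: 96-well plates, 48-hour exposure. GI50 = concentration required for 50% inhibition of growth. TGI is the concentration that stops growth completely.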 Some results are limits rather than exact numbers.

Experimental findings from PubChem BioAssay (NCI) are described below.

For the molecule `Clc1ccc(CCN[C@H]2CCCC[C@H]2N2CCCC2)cc1Cl`, the TGI in the assay on COLO 205 colon was 29.8 µM; in the assay on SK-MEL-5 melanoma it was 28.5 µM; in the assay with MOLT-4 leukemia, more than 100 µM; with MALME-3M melanoma it was 30.3 µM; with A549 NSCLC, 89.6 µM; in the assay on OVCAR-5 ovarian, 78.1 µM. For the same molecule, the TGI in the assay on SK-OV-3 ovarian is 78.2 µM; in the assay on 786-0 renal, 77 µM; in the assay on PC-3 prostate, more than 100 µM; with ACHN renal, more than 100 µM; in the assay with BT-549 breast it was 59.9 µM; with MDA-MB-231 breast, more than 100 µM. In addition, in the assay with KM12 colon, the TGI amounted to 35.1 µM.
Take `CCCc1cc(COC)c(C#N)c(=O)[nH]1`: the TGI with COLO 205 colon, with SK-MEL-5 melanoma, in the assay with MOLT-4 leukemia, in the assay with MALME-3M melanoma, in the assay with A549 NSCLC and in the assay with OVCAR-5 ovarian was more than 100 µM throughout. Moreover, the TGI with SK-OV-3 ovarian, with 786-0 renal, in the assay on PC-3 prostate, in the assay on ACHN renal, in the assay on BT-549 breast and in the assay on MDA-MB-231 breast was more than 100 µM each time. In addition, in the assay on KM12 colon, the TGI was more than 100 µM.
As to `CCC1(c2ccc(N3C(=O)c4cc(OC)c(OC)cc4C3=O)cc2)CCC(=O)NC1=O` (stereo not given), the TGI with COLO 205 colon, in the assay with SK-MEL-5 melanoma, in the assay with MOLT-4 leukemia, in the assay on MALME-3M melanoma, in the assay with A549 NSCLC and in the assay on OVCAR-5 ovarian was more than 10 µM in each case. Besides, the TGI with SK-OV-3 ovarian, with 786-0 renal, with PC-3 prostate, in the assay with ACHN renal, in the assay on BT-549 breast and in the assay on MDA-MB-231 breast was more than 10 µM in each case. In addition, the TGI in the assay with KM12 colon was more than 10 µM.
For `Cc1cc2nc3ccccc3n2c2nc(N)ccc12`, the TGI with COLO 205 colon was more than 100 µM; in the assay with SK-MEL-5 melanoma, 40.2 µM; with MOLT-4 leukemia, more than 100 µM; with A549 NSCLC it was more than 100 µM; with OVCAR-5 ovarian it was more than 100 µM; in the assay with 786-0 renal, more than 100 µM. For the same molecule, the TGI with PC-3 prostate, in the assay with ACHN renal, in the assay on BT-549 breast, in the assay with MDA-MB-231 breast, in the assay with SNB-75 CNS and in the assay on KM12 colon was more than 100 µM each time.
`CN(CCCNC(=O)c1cn(C)c2c1Cc1ccccc1-2)CCCNC(=O)c1cn(C)c2c1Cc1ccccc1-2`: the TGI in the assay on COLO 205 colon amounted to 4.05 µM; with SK-MEL-5 melanoma, 28.4 µM; in the assay on MOLT-4 leukemia it was 16.4 µM; in the assay with MALME-3M melanoma it was 24.5 µM; in the assay with A549 NSCLC it was 32.3 µM; in the assay on OVCAR-5 ovarian, 29.9 µM. Further, the TGI in the assay with SK-OV-3 ovarian stood at 32.6 µM; in the assay with 786-0 renal, 17.9 µM; in the assay on PC-3 prostate, 22.7 µM; with ACHN renal, 22.9 µM; with BT-549 breast, 39.2 µM; in the assay on MDA-MB-231 breast it was 27.4 µM. In the assay on KM12 colon, this molecule gave a TGI of 26.9 µM.
For `CCOC(=O)c1c(NC(=S)Nc2ccc(Cl)cc2)sc2c1CCN(C)C2`, the TGI in the assay with COLO 205 colon, in the assay on SK-MEL-5 melanoma, in the assay on MOLT-4 leukemia, with A549 NSCLC, in the assay on OVCAR-5 ovarian and in the assay with 786-0 renal was more than 100 µM in each case. Also, the TGI with PC-3 prostate, in the assay with ACHN renal, with BT-549 breast, in the assay with MDA-MB-231 breast and in the assay on KM12 colon was more than 100 µM in each case.
Consider `C=C1C(=O)O[C@H]2C1C[C@@H](OC(C)=O)/C(C)=C/CC[C@@]1(C)O[C@H]21` (stereo not given in full), for which the TGI in the assay on COLO 205 colon was 14.2 µM; in the assay on SK-MEL-5 melanoma it was 18.4 µM; with MOLT-4 leukemia, 9.7 µM; with MALME-3M melanoma it was 18.7 µM; with A549 NSCLC, more than 100 µM; in the assay with OVCAR-5 ovarian it was 31.5 µM. Also, the TGI is 64 µM in the assay with SK-OV-3 ovarian; 23.9 µM in the assay with 786-0 renal; 31.3 µM with PC-3 prostate; 15.2 µM in the assay with ACHN renal; 19 µM in the assay on BT-549 breast; 62.7 µM in the assay on SNB-75 CNS. Also, the TGI in the assay with KM12 colon is 44.2 µM.
As for `COc1cc2c(c(OC)c1OC)-c1ccc(SC)c(=O)cc1[C@@H](O)CC2`, the GI50 in the assay on SK-MEL-5 melanoma was 0.000311 µM; in the assay on MALME-3M melanoma, 0.028 µM; with SK-OV-3 ovarian it was more than 100 µM; with BT-549 breast it was 98.4 µM. In addition, the TGI in the assay on MOLT-4 leukemia, in the assay with A549 NSCLC, in the assay on 786-0 renal, with ACHN renal and in the assay with SNB-75 CNS was more than 100 µM throughout.
With `OC(CN(CCCl)CCCl)C(O)C(O)C(O)CN(CCCl)CCCl` (stereo not given), the TGI in the assay on COLO 205 colon, with SK-MEL-5 melanoma, in the assay with MALME-3M melanoma, with A549 NSCLC, with OVCAR-5 ovarian and in the assay on SK-OV-3 ovarian was more than 100 µM throughout. Further, the TGI in the assay on 786-0 renal is more than 100 µM; with PC-3 prostate, more than 100 µM; in the assay with ACHN renal, 17.3 µM; with BT-549 breast, more than 100 µM; in the assay with MDA-MB-231 breast, more than 100 µM; with KM12 colon, more than 100 µM.
In the case of `Cc1ccc(C)n2c1nc1ccccc12`, the TGI with COLO 205 colon, in the assay with SK-MEL-5 melanoma, in the assay with MOLT-4 leukemia, in the assay with MALME-3M melanoma, in the assay with A549 NSCLC and with OVCAR-5 ovarian was more than 100 µM each time. Further, the TGI in the assay with SK-OV-3 ovarian, in the assay on 786-0 renal, in the assay with PC-3 prostate, with ACHN renal, in the assay on BT-549 breast and in the assay on SNB-75 CNS was more than 100 µM each time. For the same molecule, in the assay on KM12 colon, the TGI was more than 100 µM.
As to `COC(=O)c1cc(NC(=O)Cc2c[nH]c3ccccc23)cn1C`, the TGI with COLO 205 colon, with SK-MEL-5 melanoma, in the assay on MOLT-4 leukemia, in the assay with MALME-3M melanoma, with A549 NSCLC and in the assay with OVCAR-5 ovarian was more than 100 µM throughout. In addition, the TGI in the assay on SK-OV-3 ovarian, with 786-0 renal, in the assay on PC-3 prostate, in the assay with ACHN renal, in the assay with BT-549 breast and in the assay on MDA-MB-231 breast was more than 100 µM in each case. In the assay with KM12 colon, this molecule showed a TGI of more than 100 µM.
